Assays:
[1] = Intrinsic clearance in rat liver microsomes at 0.2 uM in presence of NADPH generating system by LC/MS/MS method; assay type: ADME; conditions: read-out: CLH
[2] = target: Tyrosine-protein kinase JAK2 (Homo sapiens, UniProt O60674); experiment: Inhibition of human JAK2 kinase domain using biotin-Lyn-substrate-2 as substrate incubated for 1 hr by ELISA method
[3] = Effective permeability of the compound at pH 7.4 by PAMPA method; assay type: physicochemical; conditions: read-out: Peff
[4] = Intrinsic clearance in beagle dog liver microsomes at 0.2 uM in presence of NADPH generating system by LC/MS/MS method; assay type: ADME, Canis lupus familiaris; conditions: read-out: CLH
[5] = Intrinsic clearance in cynomolgus monkey liver microsomes at 0.2 uM in presence of NADPH generating system by LC/MS/MS method; assay type: ADME, Macaca fascicularis; conditions: read-out: CLH
[6] = AUC (0 to 24 hrs) in Sprague-Dawley rat at 1 mg/kg, iv by LC/MS/MS method; assay type: ADME, organism-based; parameters: dose 1 mg/kg, time < 24 hr, route intravenous; conditions: in vivo
[7] = AUC (0 to 24 hrs) in beagle dog at 1 mg/kg, iv by LC/MS/MS method; assay type: ADME, organism-based, Canis lupus familiaris; parameters: dose 1 mg/kg, time < 24 hr, route intravenous; conditions: in vivo
[8] = AUC (0 to 24 hrs) in cynomolgus monkey at 1 mg/kg, iv by LC/MS/MS method; assay type: ADME, organism-based, Macaca fascicularis; parameters: time < 24 hr, dose 1 mg/kg, route intravenous; conditions: in vivo
[9] = Half life in Sprague-Dawley rat at 1 mg/kg, iv by LC/MS/MS method; assay type: ADME, organism-based; conditions: in vivo
[10] = Half life in beagle dog at 1 mg/kg, iv by LC/MS/MS method; assay type: ADME, organism-based, Canis lupus familiaris; conditions: in vivo
[11] = Half life in cynomolgus monkey at 1 mg/kg, iv by LC/MS/MS method; assay type: ADME, organism-based, Macaca fascicularis; conditions: in vivo
[12] = Volume of distribution at steady state in Sprague-Dawley rat at 1 mg/kg, iv by LC/MS/MS method; assay type: ADME, organism-based; conditions: in vivo, read-out: Vdss
[13] = Volume of distribution at steady state in beagle dog at 1 mg/kg, iv by LC/MS/MS method; assay type: ADME, organism-based, Canis lupus familiaris; conditions: in vivo, read-out: Vdss
[14] = Volume of distribution at steady state in cynomolgus monkey at 1 mg/kg, iv by LC/MS/MS method; assay type: ADME, organism-based, Macaca fascicularis; conditions: in vivo, read-out: Vdss
[15] = Total clearance in beagle dog at 1 mg/kg, iv by LC/MS/MS method; assay type: ADME, organism-based, Canis lupus familiaris; conditions: in vivo
[16] = Total clearance in cynomolgus monkey at 1 mg/kg, iv by LC/MS/MS method; assay type: ADME, organism-based, Macaca fascicularis; conditions: in vivo
[17] = Cmax in beagle dog at 3 mg/kg, po by LC/MS/MS method; assay type: ADME, organism-based, Canis lupus familiaris; parameters: dose 3 mg/kg, route oral; conditions: in vivo
[18] = Cmax in cynomolgus monkey at 3 mg/kg, po by LC/MS/MS method; assay type: ADME, organism-based, Macaca fascicularis; parameters: dose 3 mg/kg, route oral; conditions: in vivo
[19] = Tmax in Sprague-Dawley rat at 3 mg/kg, po by LC/MS/MS method; assay type: ADME, organism-based; conditions: in vivo
[20] = Tmax in beagle dog at 3 mg/kg, po by LC/MS/MS method; assay type: ADME, organism-based, Canis lupus familiaris; conditions: in vivo
[21] = Tmax in cynomolgus monkey at 3 mg/kg, po by LC/MS/MS method; assay type: ADME, organism-based, Macaca fascicularis; conditions: in vivo
[22] = AUC (0 to 24 hrs) in Sprague-Dawley rat at 3 mg/kg, po by LC/MS/MS method; assay type: ADME, organism-based; parameters: dose 3 mg/kg, time < 24 hr, route oral; conditions: in vivo
[23] = AUC (0 to 24 hrs) in beagle dog at 3 mg/kg, po by LC/MS/MS method; assay type: ADME, organism-based, Canis lupus familiaris; parameters: time < 24 hr, dose 3 mg/kg, route oral; conditions: in vivo
[24] = AUC (0 to 24 hrs) in cynomolgus monkey at 3 mg/kg, po by LC/MS/MS method; assay type: ADME, organism-based, Macaca fascicularis; parameters: time < 24 hr, dose 3 mg/kg, route oral; conditions: in vivo
[25] = Oral bioavailability in Sprague-Dawley rat at 3 mg/kg by LC/MS/MS method; assay type: ADME, organism-based; conditions: in vivo
[26] = Oral bioavailability in beagle dog at 3 mg/kg by LC/MS/MS method; assay type: ADME, organism-based, Canis lupus familiaris; conditions: in vivo
[27] = Oral bioavailability in cynomolgus monkey at 3 mg/kg by LC/MS/MS method; assay type: ADME, organism-based, Macaca fascicularis; conditions: in vivo
Rattus norvegicus [28] = experiment: (§1) Inhibition of allograft rejection in Lewis rat vascularized heterotopic cardiac transplantation model using ACI rat as cardiac donor assessed as mean survival time by measuring cardiac allograft function by daily palpation for 28 days at 10 mg/kg, po administered beginning on day of operation once daily for 14 consecutive days (reference value: 5 days); assay type: functional
Rattus norvegicus [29] = experiment: as §1, with “20” for “10”; assay type: functional
Rattus norvegicus [30] = experiment: as §1, with “10 and 20” for “10”; assay type: functional, organism-based
[31] = target: High affinity nerve growth factor receptor (Homo sapiens, UniProt P04629); experiment: Inhibition of TRKA (unknown origin)
Angiopoietin-1 receptor = Angiopoietin-1 receptor (Homo sapiens, UniProt Q02763); experiment: Inhibition of TIE2 (unknown origin)
[32] = target: Insulin-like growth factor 1 receptor (Homo sapiens, UniProt P08069); experiment: Inhibition of IGF1R (unknown origin)
[33] = target: Receptor tyrosine-protein kinase erbB-2 (Homo sapiens, UniProt P04626); experiment: Inhibition of HER2 (unknown origin)
Ephrin type-A receptor 2 = Ephrin type-A receptor 2 (Homo sapiens, UniProt P29317); experiment: Inhibition of EPHA2 (unknown origin)
[34] = target: Tyrosine-protein kinase BTK (Homo sapiens, UniProt Q06187); experiment: Inhibition of BTK (unknown origin)
[35] = target: Tyrosine-protein kinase ITK/TSK (Homo sapiens, UniProt Q08881); experiment: Inhibition of ITK (unknown origin)
[36] = target: Tyrosine-protein kinase SYK (Homo sapiens, UniProt P43405); experiment: Inhibition of SYK (unknown origin)
[37] = target: Tyrosine-protein kinase ZAP-70 (Homo sapiens, UniProt P43403); experiment: Inhibition of ZAP70 (unknown origin)
[38] = target: Tyrosine-protein kinase ABL1 (Homo sapiens, UniProt P00519); experiment: Inhibition of ABL (unknown origin)
[39] = target: Cyclin-dependent kinase 2/cyclin A (Homo sapiens, UniProt P24941); experiment: Inhibition of CDK2/CycA (unknown origin); assay type: protein-complex assay
[40] = target: Glycogen synthase kinase-3 beta (Homo sapiens, UniProt P49841); experiment: Inhibition of GSK3beta (unknown origin)
[41] = target: Calcium/calmodulin-dependent protein kinase type II subunit alpha (Homo sapiens, UniProt Q9UQM7); experiment: Inhibition of CaMK2a (unknown origin)
[42] = target: Rho-associated protein kinase 1 (Homo sapiens, UniProt Q13464); experiment: Inhibition of ROCK1 (unknown origin)
[43] = target: Ribosomal protein S6 kinase beta-1 (Homo sapiens, UniProt P23443); experiment: Inhibition of p70S6K (unknown origin)
[44] = target: RAC-alpha serine/threonine-protein kinase (Homo sapiens, UniProt P31749); experiment: Inhibition of AKT1 (unknown origin)
[45] = target: Mitogen-activated protein kinase kinase kinase 1 (Homo sapiens, UniProt Q13233); experiment: Inhibition of MEKK1 (unknown origin)
[46] = target: Mitogen-activated protein kinase kinase kinase 9 (Homo sapiens, UniProt P80192); experiment: Inhibition of MLK1 (unknown origin)
[47] = target: Bone morphogenetic protein receptor type-1A (Homo sapiens, UniProt P36894); experiment: Inhibition of BMPR1A (unknown origin)
[48] = target: Interleukin-1 receptor-associated kinase 4 (Homo sapiens, UniProt Q9NWZ3); experiment: Inhibition of IRAK4 (unknown origin)

Sequence of Angiopoietin-1 receptor (Q02763 whole entry): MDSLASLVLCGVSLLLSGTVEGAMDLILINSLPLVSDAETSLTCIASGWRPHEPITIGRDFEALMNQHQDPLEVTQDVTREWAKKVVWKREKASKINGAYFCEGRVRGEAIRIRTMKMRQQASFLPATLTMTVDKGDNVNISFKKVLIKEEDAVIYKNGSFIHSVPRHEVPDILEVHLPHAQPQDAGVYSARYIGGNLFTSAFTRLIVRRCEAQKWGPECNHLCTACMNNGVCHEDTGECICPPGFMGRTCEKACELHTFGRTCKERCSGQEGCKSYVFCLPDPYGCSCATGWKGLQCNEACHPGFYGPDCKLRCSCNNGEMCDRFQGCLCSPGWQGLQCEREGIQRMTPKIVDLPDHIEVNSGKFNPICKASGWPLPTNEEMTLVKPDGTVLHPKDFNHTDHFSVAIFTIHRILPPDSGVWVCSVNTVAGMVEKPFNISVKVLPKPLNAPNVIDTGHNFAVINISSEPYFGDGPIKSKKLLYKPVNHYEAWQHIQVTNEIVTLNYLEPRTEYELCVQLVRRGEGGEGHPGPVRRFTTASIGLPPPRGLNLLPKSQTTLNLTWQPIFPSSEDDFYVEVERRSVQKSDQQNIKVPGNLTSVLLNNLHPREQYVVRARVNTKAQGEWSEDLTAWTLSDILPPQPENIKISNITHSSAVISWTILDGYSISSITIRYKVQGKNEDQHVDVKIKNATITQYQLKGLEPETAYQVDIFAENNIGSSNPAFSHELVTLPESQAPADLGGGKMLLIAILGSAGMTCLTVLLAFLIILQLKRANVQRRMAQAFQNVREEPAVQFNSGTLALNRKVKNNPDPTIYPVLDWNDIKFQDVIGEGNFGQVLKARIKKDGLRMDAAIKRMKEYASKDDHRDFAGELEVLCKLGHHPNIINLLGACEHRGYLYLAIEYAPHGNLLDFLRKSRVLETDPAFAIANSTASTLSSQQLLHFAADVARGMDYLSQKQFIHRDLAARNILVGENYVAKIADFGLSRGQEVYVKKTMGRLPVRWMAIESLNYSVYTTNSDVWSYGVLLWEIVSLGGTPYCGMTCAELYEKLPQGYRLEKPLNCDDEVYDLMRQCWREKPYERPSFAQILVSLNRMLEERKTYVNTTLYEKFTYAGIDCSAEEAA
Sequence of Calcium/calmodulin-dependent protein kinase type II subunit alpha (Q9UQM7 whole entry): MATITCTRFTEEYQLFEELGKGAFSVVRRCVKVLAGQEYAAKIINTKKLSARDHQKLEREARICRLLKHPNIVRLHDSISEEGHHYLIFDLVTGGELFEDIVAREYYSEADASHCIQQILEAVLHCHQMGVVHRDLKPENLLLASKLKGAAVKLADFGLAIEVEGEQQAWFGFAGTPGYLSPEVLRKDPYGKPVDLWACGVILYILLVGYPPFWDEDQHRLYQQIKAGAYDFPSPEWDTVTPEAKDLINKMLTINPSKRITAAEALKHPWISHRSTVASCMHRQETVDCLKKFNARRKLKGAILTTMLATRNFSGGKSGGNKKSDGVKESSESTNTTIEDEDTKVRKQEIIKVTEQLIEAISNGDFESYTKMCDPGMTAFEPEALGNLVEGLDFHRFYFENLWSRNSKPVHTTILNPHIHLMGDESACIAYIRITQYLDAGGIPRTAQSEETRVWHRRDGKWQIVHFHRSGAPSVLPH
Sequence of High affinity nerve growth factor receptor (P04629 whole entry): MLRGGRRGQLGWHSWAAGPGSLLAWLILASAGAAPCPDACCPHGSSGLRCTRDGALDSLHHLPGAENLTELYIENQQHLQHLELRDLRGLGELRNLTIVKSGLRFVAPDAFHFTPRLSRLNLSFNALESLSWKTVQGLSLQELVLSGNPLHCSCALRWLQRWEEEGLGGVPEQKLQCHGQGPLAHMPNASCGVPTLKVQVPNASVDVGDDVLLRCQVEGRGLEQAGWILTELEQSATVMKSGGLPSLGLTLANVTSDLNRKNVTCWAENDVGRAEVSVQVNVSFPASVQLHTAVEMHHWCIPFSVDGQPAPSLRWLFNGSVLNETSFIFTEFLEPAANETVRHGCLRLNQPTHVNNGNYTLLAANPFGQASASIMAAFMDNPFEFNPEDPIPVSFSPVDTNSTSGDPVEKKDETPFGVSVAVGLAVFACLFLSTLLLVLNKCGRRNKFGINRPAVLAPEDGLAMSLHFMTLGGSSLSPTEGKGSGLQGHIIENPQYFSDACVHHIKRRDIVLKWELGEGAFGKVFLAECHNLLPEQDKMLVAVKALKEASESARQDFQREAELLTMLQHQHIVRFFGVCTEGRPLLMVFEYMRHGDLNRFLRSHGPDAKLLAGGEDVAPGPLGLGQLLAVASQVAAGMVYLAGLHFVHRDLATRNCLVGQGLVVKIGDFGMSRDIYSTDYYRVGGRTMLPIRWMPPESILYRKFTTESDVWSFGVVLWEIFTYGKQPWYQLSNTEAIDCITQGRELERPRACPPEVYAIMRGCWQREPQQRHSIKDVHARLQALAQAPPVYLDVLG
Sequence of Mitogen-activated protein kinase kinase kinase 1 (Q13233 whole entry): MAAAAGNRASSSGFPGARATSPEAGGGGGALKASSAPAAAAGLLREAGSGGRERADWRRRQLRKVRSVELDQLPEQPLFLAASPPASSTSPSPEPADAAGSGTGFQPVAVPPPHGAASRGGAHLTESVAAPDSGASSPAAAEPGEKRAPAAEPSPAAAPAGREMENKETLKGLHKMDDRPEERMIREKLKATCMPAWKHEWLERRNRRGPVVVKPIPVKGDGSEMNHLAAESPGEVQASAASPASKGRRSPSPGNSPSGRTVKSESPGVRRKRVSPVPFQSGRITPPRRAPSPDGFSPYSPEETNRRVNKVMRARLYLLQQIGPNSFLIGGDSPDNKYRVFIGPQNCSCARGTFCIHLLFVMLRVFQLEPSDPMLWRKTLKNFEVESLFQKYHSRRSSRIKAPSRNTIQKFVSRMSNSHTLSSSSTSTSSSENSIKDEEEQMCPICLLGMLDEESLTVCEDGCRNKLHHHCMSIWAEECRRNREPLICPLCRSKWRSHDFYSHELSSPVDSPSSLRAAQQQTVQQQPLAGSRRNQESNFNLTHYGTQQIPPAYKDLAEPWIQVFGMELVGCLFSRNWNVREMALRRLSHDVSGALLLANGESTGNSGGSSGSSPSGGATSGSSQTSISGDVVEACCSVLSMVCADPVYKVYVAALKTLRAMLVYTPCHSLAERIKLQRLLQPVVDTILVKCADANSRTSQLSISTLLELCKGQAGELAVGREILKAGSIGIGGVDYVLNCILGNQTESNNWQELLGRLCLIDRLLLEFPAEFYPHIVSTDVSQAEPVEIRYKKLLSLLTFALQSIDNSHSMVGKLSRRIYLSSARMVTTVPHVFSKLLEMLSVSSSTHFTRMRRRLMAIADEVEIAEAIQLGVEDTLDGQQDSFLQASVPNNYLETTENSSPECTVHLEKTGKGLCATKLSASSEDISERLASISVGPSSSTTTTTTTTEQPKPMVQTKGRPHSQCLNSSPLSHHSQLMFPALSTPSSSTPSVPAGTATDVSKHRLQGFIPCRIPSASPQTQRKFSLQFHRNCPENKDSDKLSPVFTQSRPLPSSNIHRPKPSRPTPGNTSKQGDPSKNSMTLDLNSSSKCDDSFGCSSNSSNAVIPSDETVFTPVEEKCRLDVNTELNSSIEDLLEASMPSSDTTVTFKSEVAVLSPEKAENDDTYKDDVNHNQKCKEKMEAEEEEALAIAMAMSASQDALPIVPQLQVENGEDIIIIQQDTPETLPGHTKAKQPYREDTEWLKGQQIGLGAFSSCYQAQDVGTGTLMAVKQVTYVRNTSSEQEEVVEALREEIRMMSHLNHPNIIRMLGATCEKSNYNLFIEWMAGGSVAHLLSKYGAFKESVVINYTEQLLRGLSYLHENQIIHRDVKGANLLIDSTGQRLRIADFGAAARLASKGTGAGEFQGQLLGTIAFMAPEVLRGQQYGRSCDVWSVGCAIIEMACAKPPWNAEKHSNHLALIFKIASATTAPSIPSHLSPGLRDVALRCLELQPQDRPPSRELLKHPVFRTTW
Sequence of Tyrosine-protein kinase ITK/TSK (Q08881 whole entry): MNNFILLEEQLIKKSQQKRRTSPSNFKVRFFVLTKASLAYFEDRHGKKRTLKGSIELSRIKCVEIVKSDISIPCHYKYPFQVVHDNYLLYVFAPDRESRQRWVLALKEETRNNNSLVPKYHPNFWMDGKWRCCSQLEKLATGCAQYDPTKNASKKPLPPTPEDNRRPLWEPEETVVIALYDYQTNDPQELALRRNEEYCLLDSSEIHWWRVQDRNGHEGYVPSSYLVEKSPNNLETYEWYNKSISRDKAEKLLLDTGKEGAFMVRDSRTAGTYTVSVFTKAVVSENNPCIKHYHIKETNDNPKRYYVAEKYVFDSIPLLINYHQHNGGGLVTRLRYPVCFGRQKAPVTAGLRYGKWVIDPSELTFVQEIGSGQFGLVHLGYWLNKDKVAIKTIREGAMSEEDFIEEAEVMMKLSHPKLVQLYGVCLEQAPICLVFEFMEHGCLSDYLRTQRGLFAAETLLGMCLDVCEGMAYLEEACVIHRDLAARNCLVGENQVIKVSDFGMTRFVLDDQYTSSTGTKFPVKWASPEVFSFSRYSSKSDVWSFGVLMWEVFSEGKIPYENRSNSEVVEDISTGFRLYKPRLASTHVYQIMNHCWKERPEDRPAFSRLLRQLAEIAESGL
Sequence of Bone morphogenetic protein receptor type-1A (P36894 whole entry): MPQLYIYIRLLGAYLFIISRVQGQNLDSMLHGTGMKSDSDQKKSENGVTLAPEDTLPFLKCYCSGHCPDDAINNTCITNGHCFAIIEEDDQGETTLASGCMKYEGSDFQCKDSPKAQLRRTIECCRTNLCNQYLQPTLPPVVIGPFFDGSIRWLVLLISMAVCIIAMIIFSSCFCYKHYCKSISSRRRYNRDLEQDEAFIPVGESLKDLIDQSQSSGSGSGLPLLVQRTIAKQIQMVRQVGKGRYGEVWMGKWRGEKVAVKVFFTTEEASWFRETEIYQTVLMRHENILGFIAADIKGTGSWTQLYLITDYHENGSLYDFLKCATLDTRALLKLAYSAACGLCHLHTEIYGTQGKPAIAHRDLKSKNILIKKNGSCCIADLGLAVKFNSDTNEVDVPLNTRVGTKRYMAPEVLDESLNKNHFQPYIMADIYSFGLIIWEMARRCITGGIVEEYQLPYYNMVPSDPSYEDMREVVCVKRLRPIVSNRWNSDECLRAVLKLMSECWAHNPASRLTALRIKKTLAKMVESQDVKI

## N#Cc1ccc(N2CC[C@@H](Nc3c(C(N)=O)cnc4[nH]ccc34)[C@@H](F)C2)nc1
[1]
  CLint scaled at 0.2 µM: 27.5 mL/min/kg
[2]
  IC50: 3.2 nM
[3]
  Papp: 9 ×10⁻⁶ cm/s
[4]
  CLint scaled at 0.2 µM: 18.8 mL/min/kg
[5]
  CLint scaled at 0.2 µM: 9.9 mL/min/kg
[6]
  AUC(0-t) at 24 h: 3200 ng·h/mL
[7]
  AUC(0-t) at 24 h: 5650 ng·h/mL
[8]
  AUC(0-t) at 24 h: 4490 ng·h/mL
[9]
  half-life: 3 h
[10]
  half-life: 4.2 h
[11]
  half-life: 5.4 h
[12]
  Vd: 1.1 L/kg
[13]
  Vd: 1 L/kg
[14]
  Vd: 1.5 L/kg
[15]
  clearance: 3 mL/min/kg
[16]
  clearance: 3.8 mL/min/kg
[17]
  Cmax: 666 ng/mL
[18]
  Cmax: 684 ng/mL
[19]
  Tmax: 3.3 h
[20]
  Tmax: 2.7 h
[21]
  Tmax: 5.3 h
[22]
  AUC(0-t) at 24 h: 6780 ng·h/mL
[23]
  AUC(0-t) at 24 h: 8300 ng·h/mL
[24]
  AUC(0-t) at 24 h: 8690 ng·h/mL
[25]
  bioavailability: 70.7%
[26]
  bioavailability: 49.1%
[27]
  bioavailability: 64.3%
Rattus norvegicus [28]
  MST: 11.5 days
Rattus norvegicus [29]
  MST: 22 days
Rattus norvegicus [30]
  inhibition: Dose-dependent effect
[31]
  IC50: 470 nM
Angiopoietin-1 receptor
  IC50: > 1000 nM
[32]
  IC50: > 1000 nM
[33]
  IC50: > 1000 nM
Ephrin type-A receptor 2
  IC50: > 1000 nM
[34]
  IC50: > 1000 nM
[35]
  IC50: > 1000 nM
[36]
  IC50: > 1000 nM
[37]
  IC50: > 1000 nM
[38]
  IC50: > 1000 nM
[39]
  IC50: 590 nM
[40]
  IC50: 980 nM
[41]
  IC50: 1000 nM
[42]
  IC50: 190 nM
[43]
  IC50: > 1000 nM
[44]
  IC50: > 1000 nM
[45]
  IC50: > 1000 nM
[46]
  IC50: 51 nM
[47]
  IC50: > 1000 nM
[48]
  IC50: > 1000 nM

Source: ChEMBL document CHEMBL3593212, “Synthesis and evaluation of novel 1H-pyrrolo[2,3-b]pyridine-5-carboxamide derivatives as potent and orally efficacious immunomodulators targeting JAK3” (Bioorg Med Chem, 2015)
